Measured values as given in US20210069295A1, “GALECTINS CONTROL MTOR IN RESPONSE TO ENDOMEMBRANE DAMAGE AND PROVIDE A MECHANISM AND TARGET FOR THE TREATMENT OF AUTOPHAGY-RELATED DISEASES” (STC. UNM, priority 2017, published 2021).
Peptide text beside a SMILES is read from it.

Tested on: APEX2-Gal8
Test: APEX2-Gal8 proximity biotinylation LC/MS/MS proteomic analysis in HEK293T cells
Format: cell-based
Settings: 100 μM GPN 1 h vs full medium
Procedure: HEK293T cells transfected with pJJiaDEST-APEX2 or pJJiaDEST-APEX2-Gal8 were incubated with 100 μM GPN (Cayman Chemicals) in full medium for 1 h (confluence of cells remained at 70-80%). Cells were next incubated in 500 μM biotin-phenol (AdipoGen) in full medium for the last 30 min of GPN incubation. A 1 min pulse with 1 mM H2O2 at room temperature was stopped with quenching buffer (10 mM sodium ascorbate, 10 mM sodium azide and 5 mM Trolox in Dulbecco's Phosphate Buffered Saline (DPBS)). All samples were washed twice with quenching buffer, and twice with DPBS.
For LC-MS/MS analysis, cell pellets were lysed in 500 μL ice-cold lysis buffer (6 M urea, 0.3 M Nacl, 1 mM EDTA, 1 mM EGTA, 10 mM sodium ascorbate, 10 mM sodium azide, 5 mM Trolox, 1% glycerol and 25 mm Tris/HCl [PH 7.5]) for 30 min by gentle pipetting. Lysates were clarified by centrifugation and protein concentrations determined as above. Streptavidin-coated magnetic beads (Pierce) were washed with lysis buffer. 3 mg of each sample was mixed with 100 μL of streptavidin bead. The suspensions were gently rotated at 4° C. for overnight to bind biotinylated proteins. The flowthrough after enrichment was removed and the beads were washed in sequence with 1 mL IP buffer (150 mM NaCl, 10 mM Tris-HCl pH8.0, 1 mM EDTA, 1 mM EGTA, 1% Triton X-100) twice; 1 mL 1M KCl; 1 mL of 50 mM Na2CO3; 1 mL 2M Urea in 20 mM 1Tris HCl pH8; 1 mL IP buffer. Biotinylated proteins were eluted, 5-10% of the sample processed for Western Blot and 90-95% of the sample processed for mass spectrometry.
Digested peptides were analyzed by LC-MS/MS on a Thermo Scientific Q Exactive Plus Orbitrap Mass spectrometer in conjunction Proxeon Easy-nLC II HPLC (Thermo Scientific) and Proxeon nanospray source. […]
Tandem mass spectra were extracted by Proteome Discoverer version 2.2. […] All MS/MS samples were analyzed using Sequest-HT (XCorr Only)(Thermo Fisher Scientific, San Jose, Calif., USA; in Proteome Discoverer 2.2.0.388). […] Precursor intensity was determined using Proteome Discoverer 2.2 using the Minor Feature detector with the default options. […]

NCC(=O)N[C@@H](Cc1ccccc1)C(=O)Nc1ccc2ccccc2c1 [GPN, glycyl-L-phenylalanine 2-naphththylamide] (HELM PEPTIDE1{G.F.[c1ccc2cc(N[*:1])ccc2c1]}$$$$V2.0)
> 100 fold: decrease in spectral counts of mTOR proximal to APEX2-Gal8 | increase in MS signal intensity of peptide precursor ions of LAMTOR1/p18, SLC38A9 and RagA/B | increase in spectral counts of SLC38A9 and RagA/B proximal to APEX2-Gal8
